Experimental data taken from US7737125B2, “LNA antagonists targeting the androgen receptor” (Enzon Pharamaceuticals, Inc., priority 2007, dated 2010).
Strand notation (5' to 3'): a small letter for the sugar, then the base; units joined by * are phosphorothioate-linked, units joined directly phosphodiester-linked; [ ] holds rarer units or linkages, { } end groups; capitals alone tell only the bases. l = locked nucleic acid (LNA); [5mC] = 5-methylcytosine; d = 2'-deoxy (DNA)

Columns and labels:
[1] = tested on: human androgen receptor mRNA; assay: Inhibition of androgen receptor mRNA expression in A549 cells, real-time PCR after transfection; type: cell-based; settings: 16 nM oligonucleotide, AR mRNA normalised to GAPDH, down-regulation relative to mock transfected cells
Description: (§1) FIG. 2. Oligonucleotides presented in Table 3 were evaluated for their potential to knockdown the androgen receptor mRNA at concentrations of 1, 4 and 16 nM in A549 cells 24 hours after transfection using Real-time PCR. All results were normalised to GAPDH and inhibition of AR mRNA is shown as percent of untreated control. Results shown are an average of three independent experiments.
A549 The human lung cancer cell line […] was cultured in DMEM (Sigma)+10% fetal bovine serum (FBS)+2 mM Glutamax I+gentamicin (25 μg/ml).
(§2) The cell lines listed in Example 4 were treated with an oligomer using the cationic liposome formulation LipofectAMINE 2000 (Gibco) as transfection vehicle. Cells were seeded in 6-well cell culture plates (NUNC) and treated when 80-90% confluent. Oligomer concentrations used ranged from 1 nM to 16 nM final concentration. Formulation of oligomer-lipid complexes were carried out essentially as described by the manufacturer using serum-free OptiMEM (Gibco) and a final lipid concentration of 5 μg/mL LipofectAMINE 2000. Cells were incubated at 37° C. for 4 hours and treatment was stopped by removal of oligomer-containing culture medium. Cells were washed and serum-containing media was added. After oligomer treatment, cells were allowed to recover for 20 hours before they were harvested for RNA analysis.
(§3) Total RNA was extracted from cells transfected as described above and using the Qiagen RNeasy kit (Qiagen cat. no. 74104) according to the manufacturer's instructions. First strand synthesis was performed using Reverse Transcriptase reagents from Ambion according to the manufacturer's instructions.
(§4) For each sample, the volume of 0.5 •g total RNA was adjusted to 10.8 •l with RNase free H2O and mixed with 2 •l random decamers (50 •M) and 4 •l dNTP mix (2.5 mM each dNTP) and heated to 70° C. for 3 min, after which the samples were rapidly cooled on ice. After cooling the samples on ice, 2 •l 10× Buffer RT, 1 •l MMLV Reverse Transcriptase (100 U/•l) and 0.25 •l RNase inhibitor (10 U/•l) were added to each sample, followed by incubation at 42° C. for 60 min, heat inactivation of the enzyme at 95° C. for 10 min and then cooling of the sample to 4° C.
(§5) The amount of human androgen receptor mRNA in the samples was quantified using the human androgen receptor ABI Prism Pre-Developed TaqMan Assay Reagents (Applied Biosystems cat. no. Hs00171172_m1) according to the manufacturer's instructions.
(§6) Glyceraldehyde-3-phosphate dehydrogenase (GAPDH) mRNA quantity was used as an endogenous control for normalizing any variance in sample preparation.
(§7) The cDNA from the first strand synthesis performed as described in Example 6 was diluted 2-20 times, and analyzed by real time quantitative PCR using Taquman 7500 FAST or 7900 FAST from Applied Biosystems. The primers and probe were mixed with 2× Taqman Fast Universal PCR master mix (2×) (Applied Biosystems Cat. #4364103) and added to 4 μl cDNA to a final volume of 10 μl. Each sample was analysed in duplicate. Standard curves were generated by assaying 2-fold dilutions of a cDNA that had been prepared on material purified from a cell line expressing the RNA of interest. Sterile H2O was used instead of cDNA for the no-template control. PCR program: 95° C. for 30 seconds, followed by 40 cycles of 95° C., 3 seconds, 60° C., 20-30 seconds. Relative quantities of target mRNA were determined from the calculated Threshold cycle using the Applied Biosystems Fast System SDS Software Version 1.3.1.21. or SDS Software Version 2.3.
(§8) Oligonucleotides presented in Table 3 were evaluated for their potential to knock down androgen receptor mRNA expression at concentrations of 1, 4 and 16 nM (see FIGS. 1 and 2).
(§9) The data in Table 3 are presented as percentage down-regulation relative to mock transfected cells at 16 nM. Lower case letters represent DNA monomers, bold, upper case letters represent β-D-oxy-LNA monomers. All cytosine bases in the LNA monomers are 5-methylcytosines. […]

[2] = tested on: human androgen receptor mRNA; assay: Inhibition of androgen receptor mRNA expression in MCF7 cells, real-time PCR after transfection; type: cell-based; settings: 16 nM oligonucleotide, AR mRNA normalised to GAPDH, down-regulation relative to mock transfected cells
Description: as §1, with “1.” for “2.”, “n-M” for “nM”, “MCF7” for “A549”
MCF7 The human breast cancer cell line MCF7 was cultured in EagleMEM (Sigma)+10% fetal bovine serum (FBS)+2 mM Glutamax I+1×NEAA+gentamicin (25 μg/ml).
as §2, §3, §4, §5, §6, §7, §8, §9

Substance | Percent inhibition of Androgen receptor - A549 [1] [%] | Percent inhibition of Androgen receptor - MCF7 [2] [%]
5′-CsAsGsgscsasgsasasgsascsasTsCsT-3′ (antisense l[5mC]*lA*lG*dG*dC*dA*dG*dA*dA*dG*dA*dC*dA*lT*l[5mC]*lT) [SEQ ID NO: 76, LNA gapmer antisense oligonucleotide] | 94.3 | 85.9
5′-CsAsTscscsasasascstscststsGsAsG-3′ (antisense l[5mC]*lA*lT*dC*dC*dA*dA*dA*dC*dT*dC*dT*dT*lG*lA*lG) [SEQ ID NO: 66, LNA gapmer antisense oligonucleotide] | 95.3 | 79.8
5′-CsAsTscscscstsgscststscsasTsAsA-3′ (antisense l[5mC]*lA*lT*dC*dC*dC*dT*dG*dC*dT*dT*dC*dA*lT*lA*lA) [SEQ ID NO: 57, LNA gapmer antisense oligonucleotide] | 88.9 | 89.5
5′-CsCsCscstsgsgsascstscsasgsAsTsG-3′ (antisense l[5mC]*l[5mC]*l[5mC]*dC*dT*dG*dG*dA*dC*dT*dC*dA*dG*lA*lT*lG) [SEQ ID NO: 46, LNA gapmer antisense oligonucleotide] | 82.8 | 89.4
5′-CsTsTsgsgscscscsascststsgsAsCsC-3′ (antisense l[5mC]*lT*lT*dG*dG*dC*dC*dC*dA*dC*dT*dT*dG*lA*l[5mC]*l[5mC]) [SEQ ID NO: 61, LNA gapmer antisense oligonucleotide] | 93.3 | 86.7
5′-GsAsAsgststscsastscsasasasGsAsA-3′ (antisense lG*lA*lA*dG*dT*dT*dC*dA*dT*dC*dA*dA*dA*lG*lA*lA) [SEQ ID NO: 68, LNA gapmer antisense oligonucleotide] | 85.6 | 88.2
5′-GsAsGsasascscsastscscstscsAsCsC-3′ (antisense lG*lA*lG*dA*dA*dC*dC*dA*dT*dC*dC*dT*dC*lA*l[5mC]*l[5mC]) [SEQ ID NO: 44] | 63.8 | 80.1
5′-GsCsAscsasasgsgsasgstsgsgsGsAsC-3′ (antisense lG*l[5mC]*lA*dC*dA*dA*dG*dG*dA*dG*dT*dG*dG*lG*lA*l[5mC]) [SEQ ID NO: 47, LNA gapmer antisense oligonucleotide] | 77.7 | 83.1
5′-GsCsTststscsastsgscsascsasgsGsA-3′ (antisense lG*l[5mC]*lT*dT*dT*dC*dA*dT*dG*dC*dA*dC*dA*dG*lG*lA) [SEQ ID NO: 67, LNA gapmer antisense oligonucleotide] | 97.0 | 83.5
5′-GsGsAscscsasgsgstsasgscscsTsGsT-3′ (antisense lG*lG*lA*dC*dC*dA*dG*dG*dT*dA*dG*dC*dC*lT*lG*lT) [SEQ ID NO: 45, LNA gapmer antisense oligonucleotide] | 88.2 | 89.0
5′-TsCsCstsgsgsasgststsgsascsAsTsT-3′ (antisense lT*l[5mC]*l[5mC]*dT*dG*dG*dA*dG*dT*dT*dG*dA*dC*lA*lT*lT) [SEQ ID NO: 62, LNA gapmer antisense oligonucleotide] | 93.0 | 81.3
5′-TsTsGscsascsasgsasgsastsgsAsTsC-3′ (antisense lT*lT*lG*dC*dA*dC*dA*dG*dA*dG*dA*dT*dG*lA*lT*l[5mC]) [SEQ ID NO: 72, LNA gapmer antisense oligonucleotide] | 90.4 | 79.2
